Consider eleven molecules from ChEMBL document CHEMBL1201862, “PubChem BioAssay data set” (2004).

As usually defined, the GI50 is the concentration giving 50% growth inhibition.

Test systems include 786-0; BT-549; CAKI-1; COLO 205; EKVX; HCC 2998; HCT-116; HT-29; Hs-578T; M14; MOLT-4; Malme-3M; NCI-H522; OVCAR-3; SK-MEL-28; SK-OV-3; SN12C; TK-10; U-251; SR.
Holding throughout (test): DTP human tumour cell line panel, 48 h

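1) Cells in 96-well plates. 2) Compound, 48 h, 5 concentrations. 3) Linear interpolation between surrounding doses. 4) Unreached endpoint = highest concentration. GI50 is the concentration that inhibits growth by half.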 Calls of active or inactive are those of the source. Cut-off read from the data, not from the text of the source: active = GI50 up to about 1.1 µM and inactive = higher.

Take `N#Cc1c(C#N)c(SSc2c(C#N)c(C#N)c(N)n2-c2ccccc2)n(-c2ccccc2)c1N`: the GI50 with 786-0 was 9.44 µM (inactive); in the assay on BT-549, 5.57 µM (inactive); in the assay on CAKI-1, 2.14 µM (inactive); in the assay with COLO 205, 1.99 µM (inactive); with EKVX, 20.9 µM (inactive); in the assay on HCC 2998, 20.9 µM (inactive). In addition, the GI50 was 3.33 µM (inactive) in the assay with HCT-116; 40.5 µM (inactive) with HT-29; 24.7 µM (inactive) in the assay with Hs-578T; 7.69 µM (inactive) with M14; 5.89 µM (inactive) with MOLT-4; 2 µM (inactive) with Malme-3M. The GI50 in the assay with NCI-H522 was 3.47 µM (inactive); with OVCAR-3, 16.7 µM (inactive); in the assay on SK-MEL-28 it was 20.3 µM (inactive); in the assay on SK-OV-3, 19.3 µM (inactive); in the assay on SN12C, 19.7 µM (inactive); in the assay on TK-10 it was 1.82 µM (inactive). In addition, the GI50 in the assay on U-251 was 21.6 µM (inactive).

For the molecule `O=C1c2ccccc2-n2c1nc1ccc(Cl)cc1c2=O`, the GI50 is 26.1 µM (inactive) in the assay on 786-0; > 100 µM (inactive) in the assay on BT-549; 33 µM (inactive) with CAKI-1; > 100 µM (inactive) in the assay on COLO 205; 92 µM (inactive) in the assay on EKVX; > 100 µM (inactive) in the assay on HCC 2998. Moreover, the GI50 in the assay on HCT-116 was 71.4 µM (inactive); in the assay with HT-29, > 100 µM (inactive); with M14, > 100 µM (inactive); in the assay on MOLT-4 it was 78.3 µM (inactive); with OVCAR-3, > 100 µM (inactive); in the assay on SK-OV-3, > 100 µM (inactive). The GI50 in the assay on SN12C is > 100 µM (inactive); with SR, 77.4 µM (inactive); in the assay on TK-10 it was 77.4 µM (inactive); in the assay on U-251, 34.5 µM (inactive).

`COc1ccc(CC(N)c2ccc(OC)cc2)cc1` (configuration not stated): the GI50 was > 100 µM (inactive) in the assay on 786-0; > 100 µM (inactive) in the assay on BT-549; > 100 µM (inactive) in the assay with CAKI-1; 18.2 µM (inactive) in the assay on COLO 205; > 100 µM (inactive) in the assay on EKVX; 18.3 µM (inactive) with HCC 2998. Besides, the GI50 in the assay with HCT-116 is 92.9 µM (inactive); in the assay with HT-29 it was 45.4 µM (inactive); in the assay on Hs-578T, 43.9 µM (inactive); in the assay on M14, 48 µM (inactive); with MOLT-4, 57.8 µM (inactive); in the assay with Malme-3M, 37.4 µM (inactive). For the same molecule, the GI50 was > 100 µM (inactive) in the assay with NCI-H522; > 100 µM (inactive) in the assay with OVCAR-3; 38.4 µM (inactive) with SK-MEL-28; 71.4 µM (inactive) with SK-OV-3; > 100 µM (inactive) with SN12C; > 100 µM (inactive) with TK-10. Moreover, the GI50 in the assay on U-251 was 95.3 µM (inactive).

Regarding `CN(C)C(=O)C(F)(F)C(c1ccc(C(F)(F)F)cc1)C1C(=O)N(C)C(=O)N(C)C1=O` (configuration not stated), the GI50 in the assay on 786-0, with BT-549, in the assay on CAKI-1, in the assay with COLO 205, in the assay with EKVX and with HCC 2998 was > 100 µM (inactive) throughout. Besides, the GI50 in the assay on HCT-116, with M14, in the assay with OVCAR-3, in the assay with SK-MEL-28, in the assay on SK-OV-3 and in the assay on TK-10 was > 100 µM (inactive) each time. Besides, the GI50 in the assay on U-251 is > 100 µM (inactive).

With `O=C(N/N=C/c1ccc(Cl)cc1)c1ccccc1Nc1ccccc1C(=O)N/N=C/c1ccc(Cl)cc1`, the GI50 in the assay with 786-0, in the assay on BT-549, with CAKI-1, in the assay on COLO 205, with EKVX and in the assay with HCC 2998 was > 100 µM (inactive) throughout. The GI50 in the assay on HCT-116 is > 100 µM (inactive); with HT-29 it was > 100 µM (inactive); in the assay on M14 it was 33 µM (inactive); with MOLT-4 it was > 100 µM (inactive); in the assay on Malme-3M it was 64.4 µM (inactive); in the assay with OVCAR-3, > 100 µM (inactive). Moreover, the GI50 with SK-MEL-28, in the assay on SK-OV-3, in the assay with SN12C, in the assay with SR, in the assay with TK-10 and in the assay on U-251 was > 100 µM (inactive) each time.

On to `N#CCc1nc2cc(C(F)(F)F)ccc2s1`, for which the GI50 was 37.3 µM (inactive) with 786-0; 31 µM (inactive) in the assay on BT-549; 70.6 µM (inactive) in the assay with CAKI-1; 34 µM (inactive) in the assay on COLO 205; 10.7 µM (inactive) in the assay on EKVX; 26.7 µM (inactive) in the assay with HCT-116. The GI50 in the assay on HT-29 is 37.7 µM (inactive); in the assay on MOLT-4, 7.96 µM (inactive); in the assay with Malme-3M, 42.6 µM (inactive); in the assay with NCI-H522, 11.1 µM (inactive); in the assay with OVCAR-3 it was 18.3 µM (inactive); with SK-OV-3, > 100 µM (inactive). Also, the results for the GI50 with SN12C, with TK-10 and in the assay with U-251 were 45.5 µM (inactive), 41.8 µM (inactive) and 38.7 µM (inactive), respectively.

As to `CCN1CCc2sc3nc(S)n(C)c(=O)c3c2C1`, the GI50 with 786-0, with BT-549, in the assay with CAKI-1, with COLO 205, in the assay with EKVX and in the assay with HCC 2998 was > 100 µM (inactive) in each case. Also, the GI50 in the assay on HCT-116, with HT-29, in the assay with Hs-578T, in the assay on M14, in the assay on MOLT-4 and with Malme-3M was > 100 µM (inactive) throughout. In addition, the GI50 in the assay on NCI-H522, in the assay on OVCAR-3, in the assay with SK-MEL-28, in the assay with SK-OV-3, with SN12C and in the assay on TK-10 was > 100 µM (inactive) each time. In the assay on U-251, the GI50 was > 100 µM (inactive).

Take `O=C(CCc1ccccc1)ON1C(=S)NC(c2ccccc2)(c2ccccc2)C1=S`: the GI50 in the assay with 786-0 was 19.7 µM (inactive); with BT-549, 37.8 µM (inactive); in the assay with CAKI-1, 33.7 µM (inactive); in the assay with COLO 205, 40.2 µM (inactive); in the assay on EKVX, 25.4 µM (inactive); in the assay on HCC 2998 it was 29.4 µM (inactive). For the same molecule, the GI50 in the assay on HCT-116 is 23.7 µM (inactive); in the assay on HT-29 it was 25.4 µM (inactive); in the assay with Hs-578T, 31.1 µM (inactive); in the assay on M14 it was 42.1 µM (inactive); in the assay with MOLT-4, 32.3 µM (inactive); in the assay on Malme-3M it was 20.8 µM (inactive). Also, the GI50 in the assay on OVCAR-3 is 29 µM (inactive); with SK-MEL-28 it was > 100 µM (inactive); with SK-OV-3, 35.6 µM (inactive); in the assay on SN12C it was 44.8 µM (inactive); in the assay with TK-10, 54.5 µM (inactive); in the assay on U-251, 39.4 µM (inactive).

In the case of `C1=CN2C[n+]3cccc(OCc4ccccc4)c3N=C2C(OCc2ccccc2)=C1`, the GI50 in the assay on 786-0 is 15.3 µM (inactive); in the assay on BT-549, 0.344 µM (active); with CAKI-1, 22 µM (inactive); in the assay on COLO 205, 3.88 µM (inactive); with EKVX, 24.2 µM (inactive); with HCC 2998 it was 5.83 µM (inactive). The GI50 with HCT-116 is 23.3 µM (inactive); in the assay with HT-29, 8.04 µM (inactive); with Hs-578T, 2.36 µM (inactive); with M14, 16.4 µM (inactive); in the assay on Malme-3M it was 12.3 µM (inactive); with NCI-H522, 2.65 µM (inactive). In addition, the GI50 with OVCAR-3 was 5.14 µM (inactive); with SK-MEL-28, 14.2 µM (inactive); in the assay with SK-OV-3, > 100 µM (inactive); in the assay on SN12C it was 3.43 µM (inactive); with TK-10, 56 µM (inactive); with U-251, 4.51 µM (inactive).

As for `N#CCCC(CC#N)N1CCN(C(CC#N)CCC#N)CC1` (configuration not stated), the GI50 in the assay with 786-0, with BT-549, with CAKI-1, in the assay on COLO 205, with EKVX and in the assay on HCC 2998 was > 100 µM (inactive) each time. The GI50 in the assay with HCT-116, in the assay on HT-29, in the assay with M14, in the assay on MOLT-4, in the assay with Malme-3M and in the assay with NCI-H522 was > 100 µM (inactive) throughout. The GI50 with OVCAR-3, in the assay with SK-MEL-28, in the assay on SK-OV-3, in the assay with SN12C, in the assay with SR and in the assay on TK-10 was > 100 µM (inactive) each time. For the same molecule, the GI50 in the assay on U-251 is > 100 µM (inactive).

In the case of `COc1nc(N(C)C)nc2c1[n+](C)cn2C` [HETEROMINE A], the GI50 with 786-0 was 48.3 µM (inactive); with BT-549 it was 28.7 µM (inactive); in the assay with CAKI-1 it was > 100 µM (inactive); with COLO 205, 30.8 µM (inactive); in the assay on EKVX, > 100 µM (inactive); in the assay on HCT-116 it was 77.8 µM (inactive). The GI50 is > 100 µM (inactive) with HT-29; 40.3 µM (inactive) in the assay on Hs-578T; > 100 µM (inactive) in the assay on M14; 97.9 µM (inactive) in the assay with MOLT-4; 23.1 µM (inactive) in the assay with Malme-3M; 17.1 µM (inactive) in the assay on NCI-H522. Further, the GI50 in the assay on OVCAR-3 is 47 µM (inactive); in the assay on SK-MEL-28, 88.9 µM (inactive); in the assay with SK-OV-3, > 100 µM (inactive); in the assay with SN12C it was 72.8 µM (inactive); in the assay on TK-10, > 100 µM (inactive); in the assay on U-251, 15.6 µM (inactive).
